# According to patent US5360613A, “Method of reducing blood levels of total cholesterol and low-density lipoprotein cholesterol” (Iowa State University Research Foundation, Inc., priority 1993, dated 1994):
# System: blood cholesterol
# Assay: Controlled double-blind human study, blood cholesterol (Example IV, Table D)
# Type: in vivo, humans
# Method: In view of the findings of the foregoing examples, a human study was carried out.
# In a controlled double-blind study, the effects of feeding HMB on loss of urinary nitrogen, blood cholesterol and immune function in normal humans were tested. This study also measured blood components that reflect liver, kidney and tissue metabolism. In addition further measurements of nitrogen metabolism and immune function were implemented. All measurements were made in a controlled dietary situation and under blinded conditions. Normal male subjects were used who had been screened for normalcy. Ca-HMB was administered in 250 mg capsules. The subjects were instructed to take the capsules in 4 equal doses daily (with meals and at bed time). The subject ate all their meals under controlled conditions. Normal diets were used, and the amount of the diets was controlled to maintain equal and substantially constant nitrogen intake. The subjects had blood drawn before the morning meal or before they took the morning HMB dose. Each subject was studied twice: once with a placebo and once with HMB.
# [1] = HMB change net of placebo-group change
structure (smiles),measurement,setting,value
"CC(C)(O)CC(=O)O [HMB, β-hydroxy-β-methylbutyric acid]",increase of HDL cholesterol,2 g of HMB daily for two weeks,11%
same,reduction of LDL cholesterol,2 g of HMB daily for two weeks,10%
same,reduction of total cholesterol,2 g of HMB daily for two weeks,6%
same,"% Net Effect HMB, HDL Cholesterol",[1],11%
same,"% Net Effect HMB, LDL Cholesterol",[1],-10%
same,"% Net Effect HMB, LDL/HDL",[1],-25%
same,"% Net Effect HMB, Total Cholesterol",[1],-6%
same,% Change Trt. HDL Cholesterol,control to HMB treatment,3%
same,% Change Trt. LDL Cholesterol,control to HMB treatment,-8%
same,% Change Trt. LDL/HDL,control to HMB treatment,-12%
same,% Change Trt. Total Cholesterol,control to HMB treatment,-10%
same,decrease of ratio of LDL to HDL,in two weeks,25%
same,LDL cholesterol,"treated group on HMB, Ca HMB 1.0 grams/24 hours, calculated, pre-treatment control 118",107
same,LDL/HDL,"treated group on HMB, Ca HMB 1.0 grams/24 hours, pre-treatment control 2.38",2.10
same,HDL cholesterol,"treated group on HMB, Ca HMB 1.0 grams/24 hours, pre-treatment control 49.5",50.9
same,Total cholesterol,"treated group on HMB, Ca HMB 1.0 grams/24 hours, pre-treatment control 187",169
